According to US20260209222A1, “CBL-B MODULATORS AND USES THEREOF” (Nimbus Clio, Inc., priority 2022, published 2026):

Columns and labels:
[1] = tested on: Recombinant human c-Cbl (aa 47-435); test: c-Cbl Biochemical Assay (TR-FRET); conditions: ratio from the Cbl-b and c-Cbl TR-FRET biochemical assays
Protocol: c-Cbl Biochemical Assay (TR-FRET)
Recombinant human c-Cbl (aa 47-435) was expressed in E coli, purified and biotinylated in vitro. The protein was diluted to 12 nM in freshly prepared assay buffer consisting of 50 mM HEPES, pH 7.0, 100 mM NaCl, 5 mM MgCl2, 0.01% Triton-X 100, 0.01% BSA and 1 mM DTT. Recombinant human Src (aa 254-536)-GSSGSS-Zap-70 (aa 281-297) fusion protein was expressed in E coli and purified. Protein was diluted in assay buffer to 5-20 nM and ATP was added to 1 mM. Recombinant human UBE2D2(C85K) was expressed in E coli, purified and ubiquitinated and Bodipy labelled in vitro. Protein was diluted to 200 nM in assay buffer without MgCl2 (or Cisbio PPI buffer). Streptavidin-Terbium was added to 2 nM and EDTA to 10 mM, to provide a binding assay mix. Compounds were dissolved in DMSO and diluted to prepare a ten-point half log dilution series. 100 nl of each compound concentration was dispensed in duplicate in a 384 well black assay plate using acoustic dispensing. Wells for maximum signal controls received 100 nl of DMSO only and wells for minimum controls received 100 nl of a reference inhibitor compound at a final assay concentration of 100 mM to produce 100% inhibition. 5 μl of diluted c-Cbl enzyme was added to all wells of the assay plate and incubated at RT for 30 min. The enzyme assay was initiated by addition of 5 d of Src-Zap/ATP mix to all wells, and the plate incubated at RT for 60-90 min. The enzyme reaction was terminated and the binding reaction was initiated by adding 10p of binding assay mix to all wells and incubating the plate at RT for 60 min prior to assay read. Final assay conditions consisted of 6 nM c-Cbl. 2.5-10 nM Src-Zap70, 0.5 mM ATP. 1% (v/v) DMSO (enzyme reaction) and 100 nM UBE2D2(C85K)-Ub-FL-BODIPY, 5 mM EDTA, 1 nM Streptavidin-Tb (binding reaction). The HTRF assay signal was measured at 520 nm on an Envision plate reader, with reference signal at 485 or 620 nm. Data was normalized using maximum and minimum assay controls: % Inhibition=100−(100*((maximum control)−unknown)/(maximum control−minimum control)). A 4-parameter dose-response equation was used to fit the normalized dose-response data and derive an IC50 for test compounds.

[2] = target: T1, Recombinant human Cbl-b (aa 36-427) (Homo sapiens, UniProt Q13191); test: Cbl-b Biochemical Assay (TR-FRET); conditions: 6 nM Cbl-b, 1-2.5 nM Src-Zap70, 0.5 mM ATP; HTRF signal at 520 nm
T1 construct: Recombinant human Cbl-b (aa 36-427) was expressed in E coli; biotin (biotinylated in vitro); made in house; host or cells: E. coli
Protocol: Cbl-b Biochemical Assay (TR-FRET)
Recombinant human Cbl-b (aa 36-427) was expressed in E coli, purified and biotinylated in vitro. The protein was diluted to 12 nM in freshly prepared assay buffer consisting of 50 mM HEPES, pH 7.0, 100 mM NaCl, 5 mM MgCl2, 0.01% Triton-X 100, 0.01% BSA and 1 mM DTT. Recombinant human Src (aa 254-536)-GSSGSS-Zap-70 (aa 281-297) fusion protein was expressed in E coli and purified. Protein was diluted in assay buffer to 2-5 nM and supplemented with ATP to 1 mM. Fluorescein-BODIPY labeled UBED2D(C85K)-Ub was prepared by conjugating ubiquitin (Ub) labeled at its N-terminus with Fluorescein-BODIPY maleimide (ThermoFisher Catalog no B10250) to E coli expressed and purified UBED2D(C85K) [see Dou et al Nature Structural and Molecular Biology 8: 982-987, 2013]. Recombinant human UBE2D2(C85K) was expressed in E coli, purified and ubiquitinated and Bodipy labelled in vitro. Protein was diluted to 200 nM in assay buffer without MgCl2 (or Cisbio PPI buffer). Streptavidin-Terbium was added to 2 nM and EDTA to 10 mM, to provide a binding assay mix. Compounds were dissolved in DMSO and diluted to prepare a ten-point dilution series. 100 nl of each compound concentration was dispensed in duplicate in a 384 well black assay plate using acoustic dispensing. Wells for maximum signal controls received 100 nl of DMSO only and wells for minimum signal controls received 100 nl of a reference inhibitor compound at a final assay concentration of 100 mM to produce 100% inhibition. 5 μl of diluted Cbl-b enzyme was added to all wells of the assay plate and incubated at RT for 30-60 min. The enzyme assay was initiated by addition of 5 μl of Src-Zap/ATP mix to all wells, and the plate incubated at RT for 60 min. The enzyme reaction was terminated and the binding reaction was initiated by adding 10p of binding assay mix to all wells and incubating the plate at RT for 60 min prior to assay read. Final assay conditions consisted of 6 nM Cbl-b, 1-2.5 nM Src-Zap70, 0.5 mM ATP, 1% (v/v) DMSO (enzyme reaction) and 100 nM UBE2D2(C85K)-Ub-FL-BODIPY, 5 mM EDTA, 1 nM Streptavidin-Tb (binding reaction). The HTRF assay signal was measured at 520 nm on an Envision plate reader, with reference signal at 485 or 620 nm. Data was normalized using maximum and minimum assay controls: % Inhibition=100−(100*((maximum control)−unknown)/(maximum control−minimum control)). A 4-parameter dose-response equation was used to fit the normalized dose-response data and derive an IC50 for test compounds.

T1 sequence (Q13191 36-427): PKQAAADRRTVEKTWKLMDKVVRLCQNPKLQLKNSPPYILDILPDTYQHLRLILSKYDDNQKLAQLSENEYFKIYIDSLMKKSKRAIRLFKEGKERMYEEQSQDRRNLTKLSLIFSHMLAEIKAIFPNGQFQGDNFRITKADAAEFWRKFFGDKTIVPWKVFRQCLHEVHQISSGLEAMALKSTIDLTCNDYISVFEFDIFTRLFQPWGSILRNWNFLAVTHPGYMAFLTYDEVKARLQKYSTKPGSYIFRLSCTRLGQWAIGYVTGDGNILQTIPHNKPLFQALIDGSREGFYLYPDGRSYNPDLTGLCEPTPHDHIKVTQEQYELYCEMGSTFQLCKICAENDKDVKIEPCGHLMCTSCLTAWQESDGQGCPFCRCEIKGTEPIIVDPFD

With `CCNc1cc(-c2cc(C#N)ccc2-c2nncn2C)cc(-c2nc3cc(CNCC4(C#N)CCCC4)cc(C(F)(F)F)c3o2)n1` [I-4] the “Cbl-b/c-Cbl Selectivity” value [1] was 8 and the IC50 [2] was 0.2 to 5 µM.

For `C[C@H]1CCCN(Cc2cc(C(F)(F)F)c3oc(-c4cccc(C(c5nncn5C)C5COC5)c4)nc3c2)C1` (stereo partly drawn) [I-51], the “Cbl-b/c-Cbl Selectivity” value [1] was 7 and the IC50 [2] was 0.2 to 5 µM.

In the case of `C[C@H]1CCCN(Cc2cc(C(F)(F)F)c3oc(-c4cccc([C@@H](c5nncn5C)C5CCC5)c4)nc3c2)C1` [I-34], the “Cbl-b/c-Cbl Selectivity” value [1] is reported as 4 and the IC50 [2] is reported as over 5 µM.

With `Cn1cnnc1[C@@H](c1cccc(-c2nc3cc(CN4CCC5(CCC5)C4)cc(C(F)(F)F)c3o2)c1)[C@H]1C[C@@H](C(F)(F)F)C1` [I-63] the “Cbl-b/c-Cbl Selectivity” value [1] was 13 and the IC50 [2] was 0.2 to 5 µM.

`Cn1cnnc1[C@]1(c2cccc(-c3nc4cc(CN5CCC6(CC6)C5)cc(C(F)(F)F)c4o3)c2)C[C@H](C)C1` [I-9, 5-{5-Azaspiro[2.4]heptan-5-ylmethyl}-2-{3-[(1r,3s)-3-methyl-1-(4-methyl-1,2,4-triazol-3-yl)cyclobutyl]phenyl}-7-(trifluoromethyl)-1,3-benzoxazole] was tested, and the “Cbl-b/c-Cbl Selectivity” value [1] was 18 and the IC50 [2] was under 0.2 µM.

For `Cn1cnnc1-c1cc(F)ccc1-c1cc(NCCC#N)nc(-c2nc3cc(CN4CCC5(CC5)C4)cc(C(F)(F)F)c3o2)c1` [I-12, 3-{[6-(5-{5-azaspiro[2.4]heptan-5-ylmethyl}-7-(trifluoromethyl)-1,3-benzoxazol-2-yl)-4-[4-fluoro-2-(4-methyl-1,2,4-triazol-3-yl)phenyl]pyridin-2-yl]amino}propanenitrile], the “Cbl-b/c-Cbl Selectivity” value [1] was 7 and the IC50 [2] was under 0.2 µM.

For `CC(C)NCc1cc(C(F)(F)F)c2oc(-c3cccc([C@]4(c5nncn5C)C[C@@H](C)C4)c3)nc2c1` [I-5, Isopropyl[(2-{3-[(1r,3s)-3-methyl-1-(4-methyl-1,2,4-triazol-3-yl)cyclobutyl]phenyl}-7-(trifluoromethyl)-1,3-benzoxazol-5-yl)methyl]amine], the “Cbl-b/c-Cbl Selectivity” value [1] was 12 and the IC50 [2] was 0.2 to 5 µM.

`CN(Cc1cc(C(F)(F)F)c2oc(-c3cccc([C@]4(c5nncn5C)C[C@@H](C)C4)c3)nc2c1)CC1CCC1` [I-10, 1-Cyclobutyl-N-methyl-N-((2-(3-((1s,3s)-3-methyl-1-(4-methyl-4H-1,2,4-triazol-3-yl)cyclobutyl)phenyl)-7-(trifluoromethyl)benzo[d]oxazol-5-yl)methyl)methanamine] was tested, and the “Cbl-b/c-Cbl Selectivity” value [1] was 10 and the IC50 [2] was under 0.2 µM.

With `C[C@H]1CCCN(Cc2cc(C(F)(F)F)c3oc(-c4cccc([C@@H](c5nncn5C)[C@H]5C[C@H](C(F)(F)F)C5)c4)nc3c2)C1` [I-58] the “Cbl-b/c-Cbl Selectivity” value [1] was 4 and the IC50 [2] was over 5 µM.

In the case of `Cn1cnnc1-c1ccc(C(F)(F)F)cc1-c1cc(NCCCC#N)nc(-c2nc3cc(CNCC4CC4)cc(C(F)(F)F)c3o2)c1` [I-54, 4-{[6-(5-{[(cyclopropylmethyl)amino]methyl}-7-(trifluoromethyl)-1,3-benzoxazol-2-yl)-4-[2-(4-methyl-1,2,4-triazol-3-yl)-5-(trifluoromethyl)phenyl]pyridin-2-yl]amino}butanenitrile; formic acid], the “Cbl-b/c-Cbl Selectivity” value [1] is reported as 7 and the IC50 [2] is reported as over 5 µM.

For `Cn1cnnc1-c1cc(F)ccc1-c1cc(NCCC#N)nc(-c2nc3cc(CO)cc(C(F)(F)F)c3o2)c1` [I-14], the “Cbl-b/c-Cbl Selectivity” value [1] was 7 and the IC50 [2] was 0.2 to 5 µM.

In the case of `Cn1cnnc1-c1ccc(C#N)cc1-c1cc(NCCC#N)nc(-c2nc3cc(CNCC(C)(C)O)cc(C(F)(F)F)c3o2)c1` [I-15, 3-{2-[(2-Cyanoethyl)amino]-6-(5-{[(2-hydroxy-2-methylpropyl)amino]methyl}-7-(trifluoromethyl)-1,3-benzoxazol-2-yl)pyridin-4-yl}-4-(4-methyl-1,2,4-triazol-3-yl)benzonitrile], the “Cbl-b/c-Cbl Selectivity” value [1] is reported as 7 and the IC50 [2] is reported as under 0.2 µM.

`Cn1cnnc1[C@H](c1cccc(-c2nc3cc(CN4CCC5(CCC5)C4)cc(C(F)(F)F)c3o2)c1)[C@H]1C[C@@H](C(F)(F)F)C1` [I-60] was tested, and the “Cbl-b/c-Cbl Selectivity” value [1] was 1 and the IC50 [2] was over 5 µM.

`Cn1cnnc1-c1ccc(C#N)cc1-c1cc(NCC2(CC#N)CC2)nc(-c2nc3cc(CN[C@@H]4CCC[C@@H]4O)cc(C(F)(F)F)c3o2)c1` [I-27] was tested, and the “Cbl-b/c-Cbl Selectivity” value [1] was 1 and the IC50 [2] was under 0.2 µM.

With `C[C@H]1CCCN(Cc2cc(C(F)(F)F)c3oc(-c4cccc([C@@H](c5nncn5C)[C@H]5C[C@@H](C(F)(F)F)C5)c4)nc3c2)C1` [I-56] the “Cbl-b/c-Cbl Selectivity” value [1] was 5 and the IC50 [2] was over 5 µM.

`CO[C@H]1CCCN(Cc2cc(C(F)(F)F)c3oc(-c4cccc([C@]5(c6nncn6C)C[C@@H](C)C5)c4)nc3c2)C1` [I-6, 5-{1[(3S)-3-Methoxypiperidin-1-yl]methyl}-2-{3-[(1r,3s)-3-methyl-1-(4-methyl-1,2,4-triazol-3-yl)cyclobutyl]phenyl}-7-(trifluoromethyl)-1,3-benzoxazole] was tested, and the “Cbl-b/c-Cbl Selectivity” value [1] was 10 and the IC50 [2] was 0.2 to 5 µM.

In the case of `C[C@H]1CCCN(Cc2cc(C(F)(F)F)c3oc(-c4cccc([C@H](c5nncn5C)[C@H]5C[C@H](C(F)(F)F)C5)c4)nc3c2)C1` [I-57], the “Cbl-b/c-Cbl Selectivity” value [1] is reported as 2 and the IC50 [2] is reported as over 5 µM.

For `C[C@H]1CCCN(Cc2cc(C(F)(F)F)c3oc(-c4cccc([C@H](c5nncn5C)[C@H]5C[C@@H](C(F)(F)F)C5)c4)nc3c2)C1` (single isomer, unassigned) [I-59], the “Cbl-b/c-Cbl Selectivity” value [1] was 19 and the IC50 [2] was under 0.2 µM.

`Cn1cnnc1-c1ccc(C#N)cc1-c1cc(NCCC#N)nc(-c2nc3cc(CN4CCC5(CC5)C4)cc(C(F)(F)F)c3o2)c1` [I-16, 3-[2-(5-{5-azaspiro[2.4]heptan-5-ylmethyl}-7-(trifluoromethyl)-1,3-benzoxazol-2-yl)-6-[(2-cyanoethyl)amino]pyridin-4-yl]-4-(4-methyl-1,2,4-triazol-3-yl)benzonitrile] was tested, and the “Cbl-b/c-Cbl Selectivity” value [1] was 7 and the IC50 [2] was 0.2 to 5 µM.

Work on `Cn1cnnc1[C@@H](c1cccc(-c2nc3cc(CN4CCC5(CCC5)C4)cc(C(F)(F)F)c3o2)c1)[C@H]1C[C@H](C(F)(F)F)C1` [I-61] yielded an IC50 [2] of over 5 µM.

With `Cn1cnnc1-c1cc(F)ccc1-c1cc(NC[C@@H](O)CC#N)nc(-c2nc3cc(CN4CCC5(CC5)C4)cc(C(F)(F)F)c3o2)c1` [I-29] the “Cbl-b/c-Cbl Selectivity” value [1] was 14 and the IC50 [2] was under 0.2 µM.

With `C[C@H]1CCCN(Cc2cc(C(F)(F)F)c3oc(-c4cccc([C@@H](c5nncn5C)C5COC5)c4)nc3c2)C1` [I-53] the “Cbl-b/c-Cbl Selectivity” value [1] was 1 and the IC50 [2] was over 5 µM.

In the case of `CN(Cc1cc(C(F)(F)F)c2oc(-c3cc(-c4cc(C#N)ccc4-c4nncn4C)cc(NCC4(CC#N)CC4)n3)nc2c1)[C@@H]1CCC[C@@H]1O` [I-49], the “Cbl-b/c-Cbl Selectivity” value [1] is reported as 3 and the IC50 [2] is reported as under 0.2 µM.
